Reference: ChEMBL document CHEMBL1201862, “PubChem BioAssay data set” (2004)
Each block holds one molecule with its values, some of them ahead of it. Calls of active or inactive are those of the source.

What was measured:
Coagulation factor XII = biological target: T1, Coagulation factor XII (Homo sapiens, UniProt P00748); assay type: functional;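 further: activated factor XIIa alpha cleaving a fluorogenic AMC peptide substrate; inhibitor potency from loss of enzyme activity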
T1 sequence (P00748 whole entry): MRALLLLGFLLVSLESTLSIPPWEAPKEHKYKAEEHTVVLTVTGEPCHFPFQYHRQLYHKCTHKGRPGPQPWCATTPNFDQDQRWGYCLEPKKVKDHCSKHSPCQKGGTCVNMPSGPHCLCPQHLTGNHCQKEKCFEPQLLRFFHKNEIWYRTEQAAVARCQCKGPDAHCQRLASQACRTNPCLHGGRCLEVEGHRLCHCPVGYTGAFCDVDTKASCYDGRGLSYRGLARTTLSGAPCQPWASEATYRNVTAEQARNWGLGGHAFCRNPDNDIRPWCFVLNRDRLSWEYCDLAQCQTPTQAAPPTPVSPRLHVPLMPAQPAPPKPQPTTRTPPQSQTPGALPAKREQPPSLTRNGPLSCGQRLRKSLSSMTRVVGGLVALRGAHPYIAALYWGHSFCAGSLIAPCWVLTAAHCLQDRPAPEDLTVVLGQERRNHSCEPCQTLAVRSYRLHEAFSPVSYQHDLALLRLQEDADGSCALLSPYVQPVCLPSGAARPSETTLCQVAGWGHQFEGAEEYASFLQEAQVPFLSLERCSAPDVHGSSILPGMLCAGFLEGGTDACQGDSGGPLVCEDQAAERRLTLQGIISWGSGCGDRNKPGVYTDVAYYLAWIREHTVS

Cytochrome P450 2D6 = Cytochrome P450 2D6 (Homo sapiens, UniProt P10635);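 further: CYP2D6 member of a cytochrome P450 panel assay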
[1] = biological target: T2, Orexin/Hypocretin receptor type 1 (Homo sapiens, UniProt O43613); assay: (§1) Fluorescence-based cell-based high throughput dose response assay for antagonists of the orexin 1 receptor (OX1R; HCRTR1). [Related pubchem assays (depositor defined):AID434989, AID435008, AID463079, AID485270, AID492963, AID492964, AID492965, AID493232, AID504717, AID504718]; assay type: functional
T2 sequence (O43613 whole entry): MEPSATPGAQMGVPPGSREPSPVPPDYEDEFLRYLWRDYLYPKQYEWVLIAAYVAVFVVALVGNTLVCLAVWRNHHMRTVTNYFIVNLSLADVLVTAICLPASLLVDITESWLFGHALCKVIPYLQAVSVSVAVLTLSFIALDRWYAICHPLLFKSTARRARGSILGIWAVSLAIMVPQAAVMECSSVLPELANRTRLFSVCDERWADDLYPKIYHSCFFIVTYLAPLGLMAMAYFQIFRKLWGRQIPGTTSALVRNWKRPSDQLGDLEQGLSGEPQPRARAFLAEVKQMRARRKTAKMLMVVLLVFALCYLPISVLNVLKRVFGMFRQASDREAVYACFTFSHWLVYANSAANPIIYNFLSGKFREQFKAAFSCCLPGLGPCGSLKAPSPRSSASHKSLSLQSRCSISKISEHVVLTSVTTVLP

CHO-K1 = assay: (§2) Counterscreen for antagonists of the orexin 1 receptor (OX1R; HCRTR1): Homogeneous time resolved fluorescence (HTRF)-based cell-based dose response assay to identify antagonists of the parental CHO-K1 cell line. [Related pubchem assays (depositor defined):AID434989, AID435008, AID463079, AID485270, AID492963, AID492964, AID492965, AID493232, AID504699, AID504701]; assay type: functional; settings: Cricetulus griseus
[2] = as §2, with “Fluorescence-based” for “Homogeneous time resolved fluorescence (HTRF)-based”, “cell-based high throughput” for “cell-based”, “CHO” for “CHO-K1”; assay type: functional
[3] = biological target: T2, Orexin/Hypocretin receptor type 1; assay: as §1, with “Homogeneous Time Resolved Fluorescence (HTRF)-based” for “Fluorescence-based”; assay type: functional
[4] = biological target: T3, Calpain-2 catalytic subunit (Sus scrofa, UniProt P43367); assay: m-calpain protease blockers, concentration series – biochemical, fluorogenic peptide substrate, dose response (AID 1420); assay type: functional
T3 sequence (P43367 whole entry): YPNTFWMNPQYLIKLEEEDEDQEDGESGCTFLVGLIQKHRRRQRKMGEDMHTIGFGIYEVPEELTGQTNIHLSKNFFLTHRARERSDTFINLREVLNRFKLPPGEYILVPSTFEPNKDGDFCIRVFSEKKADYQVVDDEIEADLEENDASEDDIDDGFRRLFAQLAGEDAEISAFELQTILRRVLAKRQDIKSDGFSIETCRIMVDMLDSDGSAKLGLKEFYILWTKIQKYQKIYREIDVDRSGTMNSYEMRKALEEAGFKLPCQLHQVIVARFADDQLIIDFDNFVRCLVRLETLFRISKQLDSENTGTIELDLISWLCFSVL

SUMO-activating enzyme = SUMO-activating enzyme (Homo sapiens, UniProt Q9UBT2); assay: blockers of UBC9-mediated SUMO conjugation – biochemical, AlphaScreen, SUMOylation inhibitor project, confirmation (AID 2018); assay type: functional
Streptococcus = assay: GAS UMAA2166 growth inhibition – luminescence, BacTiterGlo, counter-screen for streptokinase expression inhibitor project, dose response (AID 1915); assay type: functional, organism-based;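 further: potency for reduction of bacterial viability or growth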
Beta-galactosidase [5] = biological target: T4, Beta-galactosidase (Escherichia coli, UniProt Q8VNN2); assay: detection-enzyme interference by beta-gal modulators – biochemical, E. coli enzyme, set 3, artefact control for CCR6 antagonist project, dose response (AID 504712); assay type: functional
[6] = biological target: T5, Kappa-type opioid receptor (Homo sapiens, UniProt P41145); assay type: functional
[7] = tested on: Streptococcus sp. 'group A'; assay: Streptococcus pyogenes SK(-)GAS viability under kanamycin – luminescence, BacTiterGlo, confirmation, counter-screen for streptokinase expression inhibitor project, dose response (AID 1900); assay type: functional, organism-based
[8] = biological target: T5, Kappa-type opioid receptor; assay type: functional; remark: listed apart in the source
Beta-galactosidase [9] = biological target: T4, Beta-galactosidase; assay type: functional
[10] = Counterscreen for AddAB inhibitors: absorbance-based bacterial cell-based high throughput dose response assay for inhibitors of bacterial viability. [Related pubchem assays (depositor defined):AID435030, AID449728, AID449731, AID488942, AID488955, AID488956]; assay type: functional
Exodeoxyribonuclease V = biological target: T6, Exodeoxyribonuclease V (Escherichia coli (strain K12), UniProt P04993+P07648+P08394); assay: RecBCD inhibition via phage-restricted bacterial growth – absorbance, V66 E. coli, mutant T4 phage, counter-screen for AddAB inhibitor project, dose response (AID 492957); assay type: functional, cell-based, Escherichia coli str. K-12 substr. MG1655
T6 sequence (P04993 whole entry): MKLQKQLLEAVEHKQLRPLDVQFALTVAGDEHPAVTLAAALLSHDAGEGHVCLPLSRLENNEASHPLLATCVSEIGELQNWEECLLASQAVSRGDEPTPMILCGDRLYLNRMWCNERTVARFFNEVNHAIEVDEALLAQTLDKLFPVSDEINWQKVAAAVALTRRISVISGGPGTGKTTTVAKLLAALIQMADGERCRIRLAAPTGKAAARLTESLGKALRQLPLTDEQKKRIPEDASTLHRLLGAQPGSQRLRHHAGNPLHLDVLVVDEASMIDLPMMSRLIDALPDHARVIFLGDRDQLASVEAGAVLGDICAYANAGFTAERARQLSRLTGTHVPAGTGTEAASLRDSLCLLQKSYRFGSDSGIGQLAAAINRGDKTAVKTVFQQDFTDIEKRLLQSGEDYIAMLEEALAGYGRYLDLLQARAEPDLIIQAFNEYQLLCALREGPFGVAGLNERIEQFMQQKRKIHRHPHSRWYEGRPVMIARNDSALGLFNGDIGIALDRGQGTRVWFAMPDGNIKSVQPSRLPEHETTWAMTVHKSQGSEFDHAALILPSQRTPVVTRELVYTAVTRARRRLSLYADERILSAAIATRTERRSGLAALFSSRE
T6 sequence (P07648 whole entry): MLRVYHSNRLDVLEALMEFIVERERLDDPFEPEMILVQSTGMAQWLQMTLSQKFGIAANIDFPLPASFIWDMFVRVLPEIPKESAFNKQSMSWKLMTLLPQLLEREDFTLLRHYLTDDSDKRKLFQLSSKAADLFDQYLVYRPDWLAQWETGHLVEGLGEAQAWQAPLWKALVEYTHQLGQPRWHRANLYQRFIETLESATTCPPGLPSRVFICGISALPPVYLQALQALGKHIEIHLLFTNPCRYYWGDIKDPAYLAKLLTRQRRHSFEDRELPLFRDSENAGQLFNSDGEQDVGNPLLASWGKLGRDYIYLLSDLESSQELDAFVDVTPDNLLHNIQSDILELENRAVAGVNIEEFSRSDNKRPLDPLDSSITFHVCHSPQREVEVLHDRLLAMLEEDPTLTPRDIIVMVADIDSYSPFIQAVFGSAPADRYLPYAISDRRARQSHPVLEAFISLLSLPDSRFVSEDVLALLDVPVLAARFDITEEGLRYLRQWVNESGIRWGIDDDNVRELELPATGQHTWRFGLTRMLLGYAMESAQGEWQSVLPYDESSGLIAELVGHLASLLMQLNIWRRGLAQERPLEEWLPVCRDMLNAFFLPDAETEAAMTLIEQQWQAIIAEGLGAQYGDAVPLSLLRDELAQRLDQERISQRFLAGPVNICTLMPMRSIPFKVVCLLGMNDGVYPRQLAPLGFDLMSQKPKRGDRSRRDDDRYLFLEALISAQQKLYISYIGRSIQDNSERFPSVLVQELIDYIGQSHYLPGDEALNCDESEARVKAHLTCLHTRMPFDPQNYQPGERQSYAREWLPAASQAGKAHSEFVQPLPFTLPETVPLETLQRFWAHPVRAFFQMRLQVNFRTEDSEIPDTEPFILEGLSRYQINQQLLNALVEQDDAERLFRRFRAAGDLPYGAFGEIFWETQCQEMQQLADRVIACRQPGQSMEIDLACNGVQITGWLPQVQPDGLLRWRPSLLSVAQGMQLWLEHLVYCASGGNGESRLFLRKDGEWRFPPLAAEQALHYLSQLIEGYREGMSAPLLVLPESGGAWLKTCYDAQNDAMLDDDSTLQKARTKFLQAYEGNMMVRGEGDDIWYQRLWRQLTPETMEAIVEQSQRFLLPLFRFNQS
T6 sequence (P08394 whole entry): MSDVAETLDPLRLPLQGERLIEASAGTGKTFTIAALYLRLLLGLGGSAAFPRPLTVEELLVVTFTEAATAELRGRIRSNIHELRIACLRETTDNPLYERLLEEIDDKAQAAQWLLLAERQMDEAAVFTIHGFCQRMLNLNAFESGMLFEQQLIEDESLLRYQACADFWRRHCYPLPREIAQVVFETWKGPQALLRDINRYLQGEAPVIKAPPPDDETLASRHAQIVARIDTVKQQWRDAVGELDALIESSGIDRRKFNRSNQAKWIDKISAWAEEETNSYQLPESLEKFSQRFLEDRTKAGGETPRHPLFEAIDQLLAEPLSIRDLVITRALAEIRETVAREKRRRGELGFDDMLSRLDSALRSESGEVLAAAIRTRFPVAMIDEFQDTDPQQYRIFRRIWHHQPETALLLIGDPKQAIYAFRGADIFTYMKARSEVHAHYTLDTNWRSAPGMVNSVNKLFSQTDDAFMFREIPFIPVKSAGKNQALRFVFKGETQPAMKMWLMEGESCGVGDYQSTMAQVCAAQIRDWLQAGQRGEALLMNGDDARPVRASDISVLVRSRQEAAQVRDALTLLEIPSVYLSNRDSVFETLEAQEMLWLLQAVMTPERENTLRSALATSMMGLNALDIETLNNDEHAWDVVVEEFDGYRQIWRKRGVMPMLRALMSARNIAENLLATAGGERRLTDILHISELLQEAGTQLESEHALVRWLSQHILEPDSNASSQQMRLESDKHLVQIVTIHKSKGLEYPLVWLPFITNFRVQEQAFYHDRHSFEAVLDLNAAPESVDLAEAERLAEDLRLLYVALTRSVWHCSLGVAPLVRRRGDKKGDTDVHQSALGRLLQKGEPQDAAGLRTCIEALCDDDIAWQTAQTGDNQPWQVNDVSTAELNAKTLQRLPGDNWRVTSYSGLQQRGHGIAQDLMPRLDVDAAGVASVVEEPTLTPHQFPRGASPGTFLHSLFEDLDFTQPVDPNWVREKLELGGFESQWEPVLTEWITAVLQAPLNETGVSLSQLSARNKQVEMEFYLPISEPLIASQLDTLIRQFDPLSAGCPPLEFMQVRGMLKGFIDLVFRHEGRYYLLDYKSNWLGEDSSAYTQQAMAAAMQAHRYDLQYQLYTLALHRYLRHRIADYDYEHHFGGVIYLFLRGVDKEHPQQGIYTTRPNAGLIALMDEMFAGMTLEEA

HEK293 = assay: EBV LMP1 TES2 canonical NF-kB signalling blockers – cell-based, HEK293, luciferase, cherry-pick, dose response (AID 588343); assay type: functional; settings: Homo sapiens

T5 sequence (P41145 whole entry): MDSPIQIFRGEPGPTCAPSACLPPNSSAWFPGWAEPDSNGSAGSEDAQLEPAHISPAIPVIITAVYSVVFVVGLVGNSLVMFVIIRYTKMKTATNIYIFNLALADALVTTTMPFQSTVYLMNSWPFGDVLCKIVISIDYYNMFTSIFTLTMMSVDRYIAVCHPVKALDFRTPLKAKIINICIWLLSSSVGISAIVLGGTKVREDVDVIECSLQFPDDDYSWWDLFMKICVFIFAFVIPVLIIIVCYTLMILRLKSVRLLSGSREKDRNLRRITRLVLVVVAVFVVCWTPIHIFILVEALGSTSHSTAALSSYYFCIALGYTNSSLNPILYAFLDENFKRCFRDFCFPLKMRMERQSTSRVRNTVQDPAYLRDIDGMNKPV
T4 sequence (Q8VNN2 whole entry): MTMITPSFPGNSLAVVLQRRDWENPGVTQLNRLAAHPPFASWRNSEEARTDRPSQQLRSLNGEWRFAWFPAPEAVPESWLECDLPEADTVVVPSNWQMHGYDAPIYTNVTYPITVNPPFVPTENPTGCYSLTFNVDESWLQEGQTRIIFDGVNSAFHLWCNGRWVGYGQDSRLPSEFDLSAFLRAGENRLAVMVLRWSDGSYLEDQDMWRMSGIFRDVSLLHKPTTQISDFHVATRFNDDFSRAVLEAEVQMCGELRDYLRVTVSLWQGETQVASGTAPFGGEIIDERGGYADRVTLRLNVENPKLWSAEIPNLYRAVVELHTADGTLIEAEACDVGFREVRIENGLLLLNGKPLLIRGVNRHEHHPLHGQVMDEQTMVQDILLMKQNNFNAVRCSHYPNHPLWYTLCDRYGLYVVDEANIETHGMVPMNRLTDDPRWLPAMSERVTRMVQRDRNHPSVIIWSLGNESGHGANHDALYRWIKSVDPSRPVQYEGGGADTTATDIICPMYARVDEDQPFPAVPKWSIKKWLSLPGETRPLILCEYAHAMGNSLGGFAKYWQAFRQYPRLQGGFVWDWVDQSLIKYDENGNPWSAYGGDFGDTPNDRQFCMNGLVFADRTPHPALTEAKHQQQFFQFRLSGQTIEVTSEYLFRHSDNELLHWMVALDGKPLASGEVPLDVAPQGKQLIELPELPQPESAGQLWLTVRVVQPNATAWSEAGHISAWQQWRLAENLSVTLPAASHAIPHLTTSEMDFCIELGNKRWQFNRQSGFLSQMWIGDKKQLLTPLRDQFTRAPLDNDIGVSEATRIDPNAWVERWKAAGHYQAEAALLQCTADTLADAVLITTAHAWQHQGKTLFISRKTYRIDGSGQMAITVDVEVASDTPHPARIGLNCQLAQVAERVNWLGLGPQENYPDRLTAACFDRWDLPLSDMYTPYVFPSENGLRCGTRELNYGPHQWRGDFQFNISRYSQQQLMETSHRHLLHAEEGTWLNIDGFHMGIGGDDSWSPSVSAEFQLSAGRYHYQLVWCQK
Chain of Cytochrome P450 2D6 (P10635 whole entry): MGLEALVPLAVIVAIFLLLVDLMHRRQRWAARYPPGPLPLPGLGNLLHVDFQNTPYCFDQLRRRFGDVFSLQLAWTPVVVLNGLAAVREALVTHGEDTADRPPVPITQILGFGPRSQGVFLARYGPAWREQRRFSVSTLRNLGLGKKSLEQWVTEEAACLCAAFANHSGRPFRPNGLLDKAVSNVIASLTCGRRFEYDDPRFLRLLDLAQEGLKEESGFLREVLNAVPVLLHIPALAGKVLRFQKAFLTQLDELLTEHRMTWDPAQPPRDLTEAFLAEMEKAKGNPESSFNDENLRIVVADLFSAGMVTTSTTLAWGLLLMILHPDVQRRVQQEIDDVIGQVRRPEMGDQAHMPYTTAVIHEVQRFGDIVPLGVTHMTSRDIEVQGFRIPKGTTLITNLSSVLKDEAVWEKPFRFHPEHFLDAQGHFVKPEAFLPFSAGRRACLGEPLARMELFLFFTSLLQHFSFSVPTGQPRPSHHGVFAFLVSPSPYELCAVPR
Chain of SUMO-activating enzyme (Q9UBE0 whole entry): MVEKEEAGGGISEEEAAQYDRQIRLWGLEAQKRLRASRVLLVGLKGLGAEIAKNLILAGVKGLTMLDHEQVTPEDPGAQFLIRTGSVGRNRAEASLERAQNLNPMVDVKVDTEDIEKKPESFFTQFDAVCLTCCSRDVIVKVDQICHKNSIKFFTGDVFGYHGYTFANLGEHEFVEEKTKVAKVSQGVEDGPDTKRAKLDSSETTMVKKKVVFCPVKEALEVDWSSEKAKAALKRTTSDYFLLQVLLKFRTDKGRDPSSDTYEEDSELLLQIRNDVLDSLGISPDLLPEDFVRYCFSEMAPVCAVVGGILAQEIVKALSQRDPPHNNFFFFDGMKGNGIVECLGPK
Chain of SUMO-activating enzyme (Q9UBT2 whole entry): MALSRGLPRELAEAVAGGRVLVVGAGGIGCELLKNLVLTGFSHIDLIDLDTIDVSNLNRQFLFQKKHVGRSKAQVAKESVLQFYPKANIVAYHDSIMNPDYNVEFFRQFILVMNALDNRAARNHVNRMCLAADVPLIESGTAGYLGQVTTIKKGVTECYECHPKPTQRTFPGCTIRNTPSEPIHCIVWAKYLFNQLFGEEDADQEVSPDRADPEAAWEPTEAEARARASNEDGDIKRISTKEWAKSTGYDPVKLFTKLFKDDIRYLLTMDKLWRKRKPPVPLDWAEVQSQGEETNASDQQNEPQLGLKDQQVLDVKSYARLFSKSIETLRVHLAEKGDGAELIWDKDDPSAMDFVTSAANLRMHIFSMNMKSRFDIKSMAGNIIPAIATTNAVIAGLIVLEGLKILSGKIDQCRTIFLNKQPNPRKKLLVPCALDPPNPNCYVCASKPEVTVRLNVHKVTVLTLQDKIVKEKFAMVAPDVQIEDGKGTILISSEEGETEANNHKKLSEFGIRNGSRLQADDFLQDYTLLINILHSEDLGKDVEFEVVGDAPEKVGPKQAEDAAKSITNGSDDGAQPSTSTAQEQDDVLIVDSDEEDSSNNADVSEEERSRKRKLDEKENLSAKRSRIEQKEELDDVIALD

IC50 (Coagulation factor XII): > 50 µM (inactive)
AC50 (Cytochrome P450 2D6): 25.1 µM (inconclusive)
Compound: CN(C)S(=O)(=O)Oc1ccsc1C(=O)Nc1cccc(Cl)c1

IC50 [4]: 0.719 µM (not active)
IC50 (Coagulation factor XII): > 50 µM (inactive)
Compound: Cc1ccsc1C(=O)NCCC(c1ccccc1)c1ccccc1

IC50 (Coagulation factor XII): > 50 µM (inactive)
Compound: COc1ccc(C2C(C(=O)Nc3ccccc3OC)=C(C)Nc3ncnn32)cc1 (configuration not stated)

Continued, molecule first:

Compound: CC(C)n1c(=O)[nH][nH]c1=S
IC50 [1]: 34.4 µM (inactive)
IC50 (CHO-K1): > 66.2 µM (inactive)
IC50 [2]: > 49.8 µM (inactive)
IC50 [3]: 7.04 µM (active)

Compound: COc1ccc(-c2nc3cc([N+](=O)[O-])ccc3[nH]2)cc1
IC50 (SUMO-activating enzyme): 35 µM (active)

Compound: N=C1SCC(=O)N1c1ncc(Cc2ccc(F)cc2)s1
EC50 (Streptococcus): 2.21 µM (active)
IC50 (Beta-galactosidase [5]): > 66.6 µM (inactive)
IC50 [6]: > 32 µM
EC50 [7]: 0.949 µM (active)
IC50 [8]: 7.35 µM (active)
EC50 (Beta-galactosidase [9]): > 31.5 µM (inactive)

Compound: Cc1cc(C)c(C#N)c(SCc2ccc([N+](=O)[O-])cc2)n1
IC50 (Coagulation factor XII): > 50 µM (inactive)

Compound: COc1ccc(CNC(=O)COC(=O)[C@H](Cc2c[nH]c3ccccc23)NC(=O)c2cccs2)cc1
IC50 [1]: 13.1 µM (inactive)
IC50 (CHO-K1): > 66.2 µM (inactive)
IC50 [2]: 12.8 µM (inactive)
IC50 [3]: 26.9 µM (inactive)

Compound: NC(=S)N/N=C/c1ncc(C(F)(F)F)cc1Cl
IC50 [6]: > 32 µM
IC50 [10]: > 119 µM (inactive)
IC50 [8]: 22.2 µM (inactive)
EC50 (Beta-galactosidase [9]): > 31.5 µM (inactive)
IC50 (Exodeoxyribonuclease V): > 119 µM (inactive)
AC50 (HEK293): 10.2 µM (active)
